Experimental data taken from patent publication US7531318B2, “Screening of agents for activity against ischemic myocardial insults” (priority 2004, dated 2009).

Assays:
ILK = target: T1, ILK (Homo sapiens, UniProt Q13418); test: Co-immunoprecipitation of thymosin β4 with ILK; assay type: binding
T1 construct: expressed in transfected cells; host or cells: Cos and 10T1/2 cells
T1 sequence (Q13418 1-452): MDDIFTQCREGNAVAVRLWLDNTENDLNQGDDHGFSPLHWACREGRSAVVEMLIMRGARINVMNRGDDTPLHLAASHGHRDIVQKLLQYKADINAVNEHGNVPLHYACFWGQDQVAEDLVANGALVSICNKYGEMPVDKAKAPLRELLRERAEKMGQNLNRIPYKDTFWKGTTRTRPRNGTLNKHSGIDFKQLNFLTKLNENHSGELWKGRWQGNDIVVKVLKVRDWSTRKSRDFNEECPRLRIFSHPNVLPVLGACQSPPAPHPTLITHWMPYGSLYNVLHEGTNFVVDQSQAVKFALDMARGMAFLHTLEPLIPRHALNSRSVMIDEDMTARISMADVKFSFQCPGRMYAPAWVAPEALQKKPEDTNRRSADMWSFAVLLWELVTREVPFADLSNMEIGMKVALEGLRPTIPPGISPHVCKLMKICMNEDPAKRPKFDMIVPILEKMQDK
Protocol: Co-immunoprecipitation. Cos and 10T1/2 cells were transfected with thymosin β4, PINCH and/or ILK and lysates precipitated with antibodies to each as previously described (Garg et al., 2003). Western blots were performed using anti-ILK polyclonal antibody (Santa Cruz), anti-thymosin β4 polyclonal antibody (Yu et al., 1993) (gift of H. Yin) and anti-Myc or anti-Flag antibody against tagged versions of PINCH.
Thymosin β4 activates ILK and Akt. To investigate the potential mechanisms through which thymosin β4 might be influencing cell migration and survival events, the inventors searched for thymosin β4 interacting proteins. The amino terminus of thymosin β4 was fused with affi-gel beads resulting in exposure of the C-terminus, which allowed identification of previously unknown interacting proteins but prohibited association with actin. The inventors synthesized and screened an E9.5-E12.5 mouse heart T7 phage complementary DNA library by phage display, and thymosin-β4-interacting clones were enriched and confirmed by enzyme-linked immunosorbent assay (ELISA, FIG. 3A). […] PINCH and ILK interact directly with one another and indirectly with the actin cytoskeleton as part of a larger complex involved in cell-extracellular matrix interactions known as the focal adhesion complex. […]

[1] = system: rat neonatal cardiomyocytes; test: Primary neonatal cardiomyocyte culture on laminin-coated glass: migration, survival, beating; assay type: cell-based
Source text: To test the response of postnatal cardiomyocytes, the inventors cultured primary rat neonatal cardiomyocytes on laminin-coated glass and treated the cells with phosphate-buffered saline (PBS) or thymosin β4.
Primary culture of neonatal cardiomyocytes typically survives for approximately 1 to 2 weeks, with some cells beating for up to 2 weeks when grown on laminin-coated slides in our laboratory. […] In addition, the rate of beating was consistently faster in thymosin-β4-treated neonatal cardiomyocytes (95 versus 50 beats per minute, P<0.02), indicating either a change in cell-cell communication or cell metabolism (FIG. 2M; see also Supplementary FIGS. 1A-I and 2A-M).

thymosin β4 was tested. Which “strength of interaction of ILK with thymosin β4 in the common complex” value (ILK; immunoprecipitation of PINCH, ILK and thymosin β4) did it give?
Its value is “weaker than with PINCH”.

And the “co-precipitation with ILK” value (ILK; transfected cultured cells)?
The value was “co-precipitated”.

And the “time for which rhythmically contracting myocytes were visible” value ([1]; controls beat for up to 2 weeks)?
The value was “up to 28 days”.

And the “survival of neonatal cardiomyocytes in primary culture” value ([1]; controls typically survive approximately 1 to 2 weeks)?
Its value is “survived significantly longer”.

And the “migrational distance of neonatal cardiomyocytes” value ([1]; laminin-coated glass, vs PBS control, P<0.05)?
Its value is “significantly increased”.

What about the rate of beating ([1]; versus 50 in control, P<0.02) of the same substance?
The rate of beating was 95 beats per minute.
